# Measured values published in ChEMBL document CHEMBL3792349, “Synthesis of novel diazaphosphinanes coumarin derivatives with promoted cytotoxic and anti-tyrosinase activities” (Bioorg Med Chem Lett, 2016).
# The source made the active and inactive calls. The rule behind the calls is not given here.
# Columns and labels:
# MCF7 = assay: Cytotoxicity against human MCF7 cells assessed as inhibition of cell proliferation after 48 hrs by MTT assay; format: functional, cell-based
# [1] = Cytotoxicity against human HCT116 cells assessed as inhibition of cell proliferation after 48 hrs by MTT assay; format: functional, cell-based, HCT-116
# [2] = target: T1, Tyrosinase (Agaricus bisporus) (UniProt O42713); assay: Inhibition of mushroom tyrosinase using L-tyrosine as substrate assessed as dopachrome formation at 100 uM measured for 10 mins by spectrophotometric method relative to control
# T1 sequence (whole entry): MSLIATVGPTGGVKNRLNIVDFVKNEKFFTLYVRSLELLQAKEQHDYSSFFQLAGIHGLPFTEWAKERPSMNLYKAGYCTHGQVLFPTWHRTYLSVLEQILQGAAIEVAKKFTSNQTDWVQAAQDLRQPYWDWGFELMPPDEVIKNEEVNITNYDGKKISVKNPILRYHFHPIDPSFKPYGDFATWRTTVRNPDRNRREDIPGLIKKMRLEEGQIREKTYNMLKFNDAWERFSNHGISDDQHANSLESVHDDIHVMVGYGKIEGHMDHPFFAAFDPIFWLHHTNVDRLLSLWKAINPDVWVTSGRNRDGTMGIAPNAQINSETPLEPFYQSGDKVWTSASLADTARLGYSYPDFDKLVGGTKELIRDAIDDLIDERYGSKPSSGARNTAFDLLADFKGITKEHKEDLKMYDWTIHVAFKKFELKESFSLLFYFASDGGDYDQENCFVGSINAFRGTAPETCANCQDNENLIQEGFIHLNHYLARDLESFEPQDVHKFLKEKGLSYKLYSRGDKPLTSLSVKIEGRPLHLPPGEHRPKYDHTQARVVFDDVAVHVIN
compound,measurement,setting,value
COc1ccc(P2(=S)NC(=S)C3=C(N2)Oc2c(c(=S)oc4ccccc24)C3c2cccnc2)cc1 (stereo not given),IC50,"MCF7; Homo sapiens, MCF7, 48 h",> 100 µM
same,IC50,"[1]; Homo sapiens, HCT-116, 48 h",> 100 µM
same,inhibition,[2],inactive
COc1ccc(P2(=S)NC(=S)C3=C(N2)Oc2c(c(=S)oc4ccccc24)C3c2ccccn2)cc1 (stereo not given),IC50,"MCF7; Homo sapiens, MCF7, 48 h",> 100 µM
same,IC50,"[1]; Homo sapiens, HCT-116, 48 h",> 100 µM
same,inhibition,[2],97.4%
"COc1ccc(C2C3=C(NP(=S)(c4ccc(OC)cc4)NC3=S)Oc3c2c(=S)oc2ccccc32)cc1 (single isomer, unassigned; diastereomer 1) [listing 1 of 2 here]",IC50,"MCF7; Homo sapiens, MCF7, 48 h",> 100 µM
same,IC50,"[1]; Homo sapiens, HCT-116, 48 h",49 µM
"COc1ccc(P2(=S)NC(=S)C3=C(N2)Oc2c(c(=S)oc4ccccc24)C3c2ccc(OC)c(OC)c2)cc1 (single isomer, unassigned; diastereomer 1) [listing 1 of 2 here]",IC50,"MCF7; Homo sapiens, MCF7, 48 h",> 100 µM
same,IC50,"[1]; Homo sapiens, HCT-116, 48 h",> 100 µM
"COc1ccc(P2(=S)NC(=S)C3=C(N2)Oc2c(c(=S)oc4ccccc24)C3c2ccc(Cl)cc2)cc1 (single isomer, unassigned; diastereomer 1) [listing 1 of 2 here]",IC50,"MCF7; Homo sapiens, MCF7, 48 h",32 µM
same,IC50,"[1]; Homo sapiens, HCT-116, 48 h",32 µM
"CCCCOc1ccc(C2C3=C(NP(=S)(c4ccc(OC)cc4)NC3=S)Oc3c2c(=S)oc2ccccc32)cc1 (single isomer, unassigned; diastereomer 1) [listing 1 of 2 here]",IC50,MCF7; mcf7,37.2 µM
same,IC50,[1]; hct-116,25.2 µM
"COc1ccc(P2(=S)NC(=S)C3=C(N2)Oc2c(c(=S)oc4ccccc24)C3c2ccccc2)cc1 (single isomer, unassigned; diastereomer 1) [listing 1 of 2 here]",IC50,"MCF7; Homo sapiens, MCF7, 48 h",> 100 µM
same,IC50,"[1]; Homo sapiens, HCT-116, 48 h",71 µM
"COc1ccc(P2(=S)NC(=S)C3=C(N2)Oc2c(c(=S)oc4ccccc24)C3c2ccc(C)cc2)cc1 (single isomer, unassigned; diastereomer 1) [listing 1 of 2 here]",IC50,MCF7; mcf7,> 100 µM
same,IC50,"[1]; Homo sapiens, HCT-116, 48 h",48 µM
"CCCCOc1ccc(C2C3=C(NP(=S)(c4ccc(OC)cc4)NC3=S)Oc3c2c(=S)oc2ccccc32)cc1 (single isomer, unassigned; diastereomer 1) [listing 2 of 2 here]",inhibition,[2],55%
"COc1ccc(C2C3=C(NP(=S)(c4ccc(OC)cc4)NC3=S)Oc3c2c(=S)oc2ccccc32)cc1 (single isomer, unassigned; diastereomer 1) [listing 2 of 2 here]",inhibition,[2],inactive
"COc1ccc(P2(=S)NC(=S)C3=C(N2)Oc2c(c(=S)oc4ccccc24)C3c2ccc(C)cc2)cc1 (single isomer, unassigned; diastereomer 1) [listing 2 of 2 here]",inhibition,[2],58.5%
"COc1ccc(P2(=S)NC(=S)C3=C(N2)Oc2c(c(=S)oc4ccccc24)C3c2ccc(Cl)cc2)cc1 (single isomer, unassigned; diastereomer 1) [listing 2 of 2 here]",inhibition,[2],80.7%
"COc1ccc(P2(=S)NC(=S)C3=C(N2)Oc2c(c(=S)oc4ccccc24)C3c2ccc(OC)c(OC)c2)cc1 (single isomer, unassigned; diastereomer 1) [listing 2 of 2 here]",inhibition,[2],inactive
"COc1ccc(P2(=S)NC(=S)C3=C(N2)Oc2c(c(=S)oc4ccccc24)C3c2ccccc2)cc1 (single isomer, unassigned; diastereomer 1) [listing 2 of 2 here]",inhibition,[2],inactive
"COc1ccc(C2C3=C(NP(=S)(c4ccc(OC)cc4)NC3=S)Oc3c2c(=S)oc2ccccc32)cc1 (single isomer, unassigned; diastereomer 2) [listing 1 of 2 here]",IC50,MCF7; mcf7,99 µM
same,IC50,[1]; hct-116,31.6 µM
"COc1ccc(P2(=S)NC(=S)C3=C(N2)Oc2c(c(=S)oc4ccccc24)C3c2ccc(Cl)cc2)cc1 (single isomer, unassigned; diastereomer 2) [listing 1 of 2 here]",IC50,MCF7; mcf7,33 µM
same,IC50,[1]; hct-116,30 µM
"CCCCOc1ccc(C2C3=C(NP(=S)(c4ccc(OC)cc4)NC3=S)Oc3c2c(=S)oc2ccccc32)cc1 (single isomer, unassigned; diastereomer 2) [listing 1 of 2 here]",IC50,MCF7; mcf7,> 100 µM
same,IC50,[1]; hct-116,56 µM
"COc1ccc(P2(=S)NC(=S)C3=C(N2)Oc2c(c(=S)oc4ccccc24)C3c2ccccc2)cc1 (single isomer, unassigned; diastereomer 2) [listing 1 of 2 here]",IC50,[1]; hct-116,68 µM
"COc1ccc(P2(=S)NC(=S)C3=C(N2)Oc2c(c(=S)oc4ccccc24)C3c2ccc(C)cc2)cc1 (single isomer, unassigned; diastereomer 2) [listing 1 of 2 here]",IC50,MCF7; mcf7,40 µM
same,IC50,[1]; hct-116,37 µM
"CCCCOc1ccc(C2C3=C(NP(=S)(c4ccc(OC)cc4)NC3=S)Oc3c2c(=S)oc2ccccc32)cc1 (single isomer, unassigned; diastereomer 2) [listing 2 of 2 here]",inhibition,[2],88.7%
"COc1ccc(C2C3=C(NP(=S)(c4ccc(OC)cc4)NC3=S)Oc3c2c(=S)oc2ccccc32)cc1 (single isomer, unassigned; diastereomer 2) [listing 2 of 2 here]",inhibition,[2],68.8%
"COc1ccc(P2(=S)NC(=S)C3=C(N2)Oc2c(c(=S)oc4ccccc24)C3c2ccc(C)cc2)cc1 (single isomer, unassigned; diastereomer 2) [listing 2 of 2 here]",inhibition,[2],61.8%
"COc1ccc(P2(=S)NC(=S)C3=C(N2)Oc2c(c(=S)oc4ccccc24)C3c2ccc(Cl)cc2)cc1 (single isomer, unassigned; diastereomer 2) [listing 2 of 2 here]",inhibition,[2],16.1%
"COc1ccc(P2(=S)NC(=S)C3=C(N2)Oc2c(c(=S)oc4ccccc24)C3c2ccc(OC)c(OC)c2)cc1 (single isomer, unassigned; diastereomer 2)",inhibition,[2],56.8%
"COc1ccc(P2(=S)NC(=S)C3=C(N2)Oc2c(c(=S)oc4ccccc24)C3c2ccccc2)cc1 (single isomer, unassigned; diastereomer 2) [listing 2 of 2 here]",inhibition,[2],inactive
COc1cccc2c1C(=O)c1c(O)c3c(c(O)c1C2=O)C[C@@](O)(C(=O)CO)C[C@@H]3O[C@H]1C[C@H](N)[C@H](O)[C@H](C)O1 [DOXORUBICIN],IC50,"MCF7; Homo sapiens, MCF7, 48 h",0.38 µM
